This note sets out measurements from patent publication US10350218B2, “Isoquinolidinobenzodiazepine (IQB)-1(chloromethyl)-2,3-dihydro-1H-benzo[e]indole (CBI) dimers” (priority 2016, dated 2019).

Experiment [1] has as its system AML2 cell line. Nature of the experiment: Cell killing assay (cytotoxicity) of IQB-CBI dimers, AML2. Format: cell-based. The settings on record: 72 h; AML2 cells; 3-day incubation. How it is done:
(§1) Cytotoxicity of D801, D803, D05, D807, D809, D811, D813, D815 and D817 were tested against AML2 and HL60 cell lines. Cell killing assay was performed after 3-day incubation with various IQB-CBI dimers.

Experiment [2] concerns HL60 cell line. Nature of the experiment: Cell killing assay (cytotoxicity) of IQB-CBI dimers, HL60. Format: cell-based. Conditions: Homo sapiens, HL-60, 72 h; HL60 cells; 3-day incubation. How it is done: as §1
The target of experiment [3] is T1, human interleukin 1 receptor accessory protein (IL1RAP) (human, UniProt Q9NPH3 21-570).
T1 construct: The target is carried by human cell lines: EOL1 at high copy number, HL-60 and SK-MEL-5 at low copy number
T1 sequence: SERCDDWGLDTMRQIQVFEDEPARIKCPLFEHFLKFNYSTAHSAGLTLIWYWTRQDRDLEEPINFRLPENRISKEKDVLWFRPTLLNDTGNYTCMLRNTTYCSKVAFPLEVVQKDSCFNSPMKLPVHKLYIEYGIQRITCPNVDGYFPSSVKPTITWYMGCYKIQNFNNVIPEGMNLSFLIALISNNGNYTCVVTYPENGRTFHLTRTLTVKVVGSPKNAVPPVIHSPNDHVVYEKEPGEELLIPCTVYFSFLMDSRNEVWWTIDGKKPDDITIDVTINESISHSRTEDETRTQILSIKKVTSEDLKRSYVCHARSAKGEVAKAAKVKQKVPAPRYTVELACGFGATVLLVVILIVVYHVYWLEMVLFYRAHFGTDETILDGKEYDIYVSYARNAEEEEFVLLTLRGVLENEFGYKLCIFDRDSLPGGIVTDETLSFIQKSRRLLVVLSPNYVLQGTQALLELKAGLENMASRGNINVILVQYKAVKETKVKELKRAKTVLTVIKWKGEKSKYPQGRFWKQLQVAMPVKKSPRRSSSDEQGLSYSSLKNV
The experiment can be described thus: flow cytometry (MFI, anti-human APC secondary) on HL-60, EOL1 and SK-MEL-5 cells expressing IL1RAP. From the text:
FIGS. 15 and 16 show binding, as a function of mean fluorescent intensity, of humanized (hu3G7) or chimeric (Chi3G7) anti-IL1RAP antibody to various cell lines. HL-60 cells (human promyelocytic leukemia cells), EOL1 cells (human eosinophilic leukemia cells) and SK-MEL-5 cells (human melanoma cell line) express IL1RAP, and EOL1 cells do so with high expression. C0 antibody is a non-binding control IgG1. D212 is a composition having the formula: […]
The cells were resuspended in binding buffer (PBS, 2% FBS)) containing 5% NHS (normal human serum) to 2 ×10^6 cells/mL. To 50 µL of cells, 50 µL of primary antibody/ADC was added and incubated at 4° for 30 min. After incubation, cells were wasked with binding buffer 2 times and then resuspended and incubated with second antibody (anti-human APC, 1:400 in the binding buffer) at 4° for 30 min. Cells were washed with binding buffer and resuspended in 200 uL of binding buffer with propidium iodide. Cells were immediately applied to flow cytometry for analysis. Mean fluorescence intensity (MFI) of the stained sample was measured.

In brackets after ≈: the same amount, converted by molar mass.

In the case of `COc1cc2c(cc1OCCCCCC(=O)N1CC(CCl)c3c1cc(O)c1ccccc31)N=C[C@@H]1Cc3ccccc3CN1C2=O` (stereo partly drawn) [D813, (6aS)-3-((6-(1-(chloromethyl)-5-hydroxy-1,2-dihydro-3H-benzo[e]indol-3-yl)-6-oxohexyl)oxy)-2-methoxy-7,12-dihydrobenzo[5,6][1,4]diazepino[1,2-b]isoquinolin-14(6aH)-one], the IC50 in experiment [1] was 0.00028 ng/mL (≈ 0.000439 nM); in experiment [2], 0.00072 ng/mL (≈ 0.00113 nM).

B1: humanized, cys-substituted (S156C) anti-IL1RAP antibody 3G7 (hu3G7), tested as antibody and as IQB-CBI antibody-drug conjugates (antibody, human IgG1, kappa, V domains shown)
VH: EVQLVQSGAEVKKPGASVKISCKASGYTFTNYGMHWVRQAPGQGLEWMGWINTYTGEPTYAQKFQGRFTFTLDTSTSTAYLEIRSLRSDDTAVYYCARYYGNFDYWGQGTLLTVSS
VL: EIVMTQSPATLSVSPGERATLSCRASQSISNNLHWYQQKPGQAPRLLIYYASQSISGIPARFSGSGSGTEFTLTISSLQSEDFAVYYCQQSHNWPHTFGQGTKLEIKR
modifications: IQB-CBI dimer linker-payload (D816, D818, D820, D822, D824, D826 or D828) attached by maleimide to the substituted cysteine (S156C); DAR 1.7-2.0
notes: also called 3G7-S156C-CYSMAB; hu3G7-IQB-CBI
For B1, the binding result in experiment [3] was “binds”.

B2: chimeric, cys-substituted (S156C) anti-IL1RAP antibody 3G7 (Chi3G7; human constant domain, mouse variable domain), tested as antibody and as IQB-CBI … (antibody, V domains shown)
VH: QIQLVQSGPELKKPGETVKISCKASGYTFTNYGMHWVKQSPGEGLKWMGWINTYTGEPTYADDFKGRFGFSLETSASSAYLQINDLKNEDMATYFCARYYGNFDYWGQGTTLTVSS
VL: DIVLTQSPATLSVTPGDSVSLSCRASQSISNNLHWYQQKSHESPRLLIKYASQSISGIPSRFSGSGSGTDFTLSINSVETEDFGVYFCQQSHNWPHTFGGGTKLEIKR
modifications: IQB-CBI dimer linker-payload (D816, D818, D820, D822, D824, D826 or D828) on the substituted cysteine S156C of the heavy chain constant region (constant region sequence not given)
notes: also called Chi3G7-(IQB-CBI) ADC; Chi3G7-CLT-(IQB-CBI) ADC
Regarding B2, the binding result in experiment [3] is “binds”.

Broadly, the IC50 is the midpoint of a concentration-inhibition curve. Lower therefore signals greater potency in that assay.
